From US20090099192A1, “Substituted 1H-pyrrole-2,5-diones” (Bayer CropScience AG, priority 2004, published 2009)

Tests used:
[1] = system: caterpillars of the army worm (Spodoptera frugiperda); test: Spodoptera frugiperda test (cabbage leaves dipped); format: in vivo
Protocol: (§1) [table] To produce a suitable preparation of active compound, 1 part by weight of active compound is mixed with the stated amount of solvent and the stated amount of emulsifier, and the concentrate is diluted with emulsifier-containing water to the desired concentration. Cabbage leaves (Brassica oleracea) are treated by being dipped into the active compound preparation of the desired concentration and populated with caterpillars of the army worm (Spodoptera frugiperda) while the leaves are still moist. After the desired period of time, the kill in % is determined. 100% means that all caterpillars have been killed; 0% means that none of the caterpillars have been killed.

[2] = system: common spidermite (Tetranychus urticae); test: Tetranychus test; format: in vivo; settings: 500 ppm, spray, Phaseolus vulgaris disks
Protocol: (§2) To produce a suitable preparation of active compound, 1 part by weight of active compound is mixed with the stated amounts of solvent and emulsifier, and the concentrate is diluted with emulsifier-containing water to the desired concentration.
Disks of beans (Phaseolus vulgaris), which are infested by all stages of the common spidermite (Tetranychus urticae) are sprayed with an active compound preparation of the desired concentration.
After the desired period of time, the effect in % is determined. 100% means that all spidermites have been killed; 0% means that none of the spidermites have been killed.

[3] = system: larvae of the mustard beetle (Phaedon cochleariae); test: Phaedon larvae test (cabbage leaves dipped); format: in vivo
How it was run: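 Cabbage (Brassica oleracea) leaves dipped in compound emulsion diluted in water to the test concentration, then infested with Phaedon cochleariae larvae while still moist. After the set period, % kill is scored (100% = all larvae dead, 0% = none).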

[4] = logP determination by HPLC on reversed-phase column (C 18), EEC Directive 79/831 Annex V.A8; format: physicochemical; settings: reversed-phase C 18, 43° C., acid range (0.1% aqueous phosphoric acid, acetonitrile), marked a)
How it was run: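 Reversed-phase C18 HPLC at 43° C, per EEC Directive 79/831 Annex V.A8, acid range: 0.1% aqueous phosphoric acid with linear 10–90% acetonitrile gradient. logP derived from retention time by linear interpolation between calibrating unbranched alkan-2-ones (C3–C16) of known logP.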

[5] = system: caterpillars of the army worm (Spodoptera exigua); test: Spodoptera exigua test; format: in vivo
Protocol: as §1, with “amounts” for “amount”, “and” for “and the stated amount of”, “exigua)” for “frugiperda)”

[6] = system: caterpillars of the diamond back moth (Plutella xylostella, resistant strain); test: Plutella test; resistant strain; format: in vivo
Protocol: as §2
Cabbage leaves (Brassica oleracea) are treated by being dipped into the active compound preparation of the desired concentration and populated with caterpillars of the diamond back moth (Plutella xylostella, resistant strain) while the leaves are still moist.
After the desired period of time, the kill in % is determined. 100% means that all caterpillars have been killed; 0% means that none of the caterpillars have been killed.

[7] = system: larvae of the mustard beetle (Phaedon cochleariae); test: Phaedon test (spray treatment); format: in vivo
How it was run: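 Chinese cabbage leaf disks sprayed with compound diluted in emulsifier-containing water, dried, then infested with mustard beetle larvae. After a set period, mortality scored in %: 100% all larvae dead, 0% none dead.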

[8] = system: caterpillars of the diamond back moth (Plutella xylostella); test: Plutella test; format: in vivo
Protocol: as §1, with “amounts” for “amount”, “and” for “and the stated amount of”, “diamond back moth (Plutella xylostella)” for “army worm (Spodoptera frugiperda)”

[9] = 500 ppm, leaf dip, Brassica oleracea

O=C1C(O)=C(c2ccccc2Cl)C(=O)N1C1CCCC(C(F)(F)F)C1 (centres unmarked) [Example 214]
activity in the Spodoptera frugiperda test (leaf dip) [1]: good activity
Kill rate in % after 7 d [1, 9]: 100%
Kill rate in % after 5 d [2]: 90%
activity in the Phaedon larvae test [3]: good activity
Kill rate in % after 7 d [3, 9]: 100%
logP [4]: logP = 3.53^a)
activity in the Spodoptera exigua test [5]: good activity
Kill rate in % after 7 d ([5]; 500 ppm, leaf dip): 100%
activity in the Plutella test, resistant strain [6]: good activity
Kill rate in % after 7 d ([6]; 500 ppm, leaf dip, resistant strain): 100%
activity in the Phaedon test (spray treatment) [7]: good activity
Kill rate in % after 7 d ([7]; 100 g/ha, spray, Brassica pekinensis disks): 100%
activity in the Plutella test [8]: good activity
Kill rate in % after 7 d ([8]; 500 ppm, leaf dip): 100%
